According to patent publication US20040127549A1, “Cyclic 2-carbonylaminoketones as inhibitors of cruzipain and other cysteine proteases” (priority 2001, published 2004):
pKi: −log10 of the molar value.

Legend:
Cruzipain = biological target: T1, Cruzipain (Trypanosoma cruzi, UniProt P25779); test: Trypanosoma cruzi cruzipain peptidase activity assay (Ki); assay type: biochemical; conditions: wild-type cruzipain, pH 6.75, 25±1° C.
T1 construct: Wild-type cruzipain, derived from Trypanosoma cruzi Dm28 epimastigotes, was obtained from Dr. Julio Scharfstein; tissue Dr. Julio Scharfstein (Instituto de Biofisica Carlos Chagas Filho, Universidade Federal do Rio de Janeiro); host or cells: Trypanosoma cruzi Dm28 epimastigotes
Method: (§1) Assay protocols were based on literature precedent (Tablel; Barrett, A. J., Rawlings, N. D. and Woessner, J. F., 1998, Handbook of Proteolytic Enzymes, Academic Press, London and references therein) and modified as required to suit local assay protocols. Enzyme was added as required to initiate the reaction and the activity, as judged by the change in fluorescence upon conversion of substrate to product, was monitored over time. All assays were carried out at 25±1° C.
Wild-type cruzipain, derived from Trypanosoma cruzi Dm28 epimastigotes, was obtained from Dr. Julio Scharfstein (Instituto de Biofisica Carlos Chagas Filho, Universidade Federal do R10 de Janeiro, R10 de Janeiro, Brazil). Activity assays were carried out in 100 mM sodium phosphate, pH 6.75 containing 1 mM EDTA and 10 mM L-cysteine using 2.5 nM enzyme. Ac-Phe-Arg-AMC (KM^app≈12 1M) and D-Val-Leu-Lys-AMC (KM^app≈4 1M) were used as the substrates. Routinely, Ac-FR-AMC was used at a concentration equivalent to KM^app and D-Val-Leu-Lys-AMC was used at a concentration of 25 μM. The rate of conversion of substrate to product was derived from the slope of the increase in fluorescence monitored continuously over time.
(§2) The apparent inhibition constant (Ki) for each compound was determined on the basis that inhibition was reversible and occurred by a pure-competitive mechanism. The Ki values were calculated, from the dependence of enzyme activity as a function of inhibitor concentration, by direct regression analysis (Prism v 3.02) using Equation 2 (Cornish-Bowden, A., 1995.). [formula] […]
(§3) In situations where the apparent dissociation constant (Ki^app) approached the enzyme concentrations, the Ki^app values were calculated using a quadratic solution in the form described by Equation 3 (Morrison, J. F. Trends Biochem. Sci., 7, 102-105, 1982; Morrison, J. F. Biochim. Biophys. Acta, 185, 269-286, 1969; Stone, S.R. and Hofsteenge, J. Biochemistry, 25, 4622-4628, 1986). […]

Bovine Cathepsin S = biological target: T2, Bovine Cathepsin S (Bos taurus, UniProt P25326); test: Cathepsin peptidase activity assay (Ki), bovine cathepsin S; assay type: biochemical; conditions: pH 6.5, 25±1° C.
T2 construct: purchased CN Biosciences
Method: as §1
(§4) Bovine cathepsin S, human cathepsin L, human cathepsin H and human cathepsin B were obtained from CN Biosciences. Recombinant human cathepsin S, human cathepsin K and human cathepsin X were obtained from Dr. Boris Turk (Josef Stefan Institute, Ljubljana, Slovenia). Unless otherwise stated, all peptidase activity assays were carried out in 10 mM bis-tris-propane (BTP), pH 6.5 containing 1 mM EDTA, 5 mM 2-mercaptoethanol and 1 mM CaCl2. Human cathepsin H activity assays were carried out in 10 mM BTP pH 6.5, 142 MM NaCl2 1 mM CaCl2, 1 mM EDTA, 1 mM DTr, 0.035 mM Zwittergent 3-16. […] The rate of conversion of substrate to product was derived from the slope of the increase in fluorescence monitored continuously over time.
as §2, with “1995.).” for “1995.). [formula]”
as §3

Human Cathepsin L = biological target: T3, Human Cathepsin L (Homo sapiens, UniProt P07711); test: Cathepsin peptidase activity assay (Ki), human cathepsin L; assay type: biochemical; conditions: pH 6.5, 25±1° C.
T3 construct: purchased CN Biosciences
Method: as §1, §4
as §2, with “1995.).” for “1995.). [formula]”
as §3

Human Cathepsin K = biological target: T4, Human Cathepsin K (Homo sapiens, UniProt P43235); test: Cathepsin peptidase activity assay (Ki), human cathepsin K; assay type: biochemical; conditions: pH 5.5, 25±1° C.
T4 construct: purchased Dr. Boris Turk (Josef Stefan Institute, Ljubljana, Slovenia)
T4 sequence (P43235 115-329): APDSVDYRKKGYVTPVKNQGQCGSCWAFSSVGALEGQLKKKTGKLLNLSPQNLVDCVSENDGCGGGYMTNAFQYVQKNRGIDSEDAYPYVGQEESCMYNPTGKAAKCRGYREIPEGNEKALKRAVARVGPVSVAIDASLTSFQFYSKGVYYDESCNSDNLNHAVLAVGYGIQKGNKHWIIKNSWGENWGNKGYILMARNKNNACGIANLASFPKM
Method: as §1, §4
as §2, with “1995.).” for “1995.). [formula]”
as §3

[1] = tested on: Trypanosoma cruzi-infected mammalian cell cultures; conditions: addition to infected mammalian cell cultures; cited from earlier work
[2] = tested on: Trypanosoma cruzi infection; conditions: acute phase of infection; cited from earlier work

T1 sequence (P25779 123-467): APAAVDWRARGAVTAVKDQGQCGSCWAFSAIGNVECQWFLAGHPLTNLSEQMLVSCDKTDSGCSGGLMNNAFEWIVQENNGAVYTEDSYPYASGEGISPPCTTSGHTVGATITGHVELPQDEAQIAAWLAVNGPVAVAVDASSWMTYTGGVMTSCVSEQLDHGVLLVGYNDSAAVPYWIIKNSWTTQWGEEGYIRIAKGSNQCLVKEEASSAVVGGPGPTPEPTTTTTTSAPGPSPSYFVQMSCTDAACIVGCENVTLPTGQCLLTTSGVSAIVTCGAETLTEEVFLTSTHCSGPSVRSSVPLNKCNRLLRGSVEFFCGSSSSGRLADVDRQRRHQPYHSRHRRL
T2 sequence (P25326 115-331): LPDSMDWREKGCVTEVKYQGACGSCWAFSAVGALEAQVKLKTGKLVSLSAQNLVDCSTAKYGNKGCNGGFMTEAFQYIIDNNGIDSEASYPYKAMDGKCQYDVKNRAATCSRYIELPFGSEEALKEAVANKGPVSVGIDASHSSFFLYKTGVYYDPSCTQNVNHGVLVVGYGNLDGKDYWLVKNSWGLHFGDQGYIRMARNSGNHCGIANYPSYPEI
T3 sequence (P07711 114-333): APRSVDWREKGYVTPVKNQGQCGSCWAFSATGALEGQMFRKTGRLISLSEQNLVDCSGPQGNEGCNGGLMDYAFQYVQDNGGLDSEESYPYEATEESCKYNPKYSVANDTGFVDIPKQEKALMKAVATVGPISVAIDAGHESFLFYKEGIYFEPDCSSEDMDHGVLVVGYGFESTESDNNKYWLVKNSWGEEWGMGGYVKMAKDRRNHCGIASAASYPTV

pKi (Cruzipain)	pKi (Bovine Cathepsin S)	pKi (Human Cathepsin L)	pKi (Human Cathepsin K)	SMILES	effect on parasite replication and differentiation [1]	cure [2]
> 5.70	< 4.30	< 4.30	< 4.00	C[C@H]1OCC(=O)[C@]1(C)NC(=O)[C@H](Cc1ccc(O)cc1)NC(=O)c1csc(-c2cccnc2)n1 [Example 6, (2R, 3R) 2-Pyridin-3-yl-thiazole4-carboxylic acid [1-(2,3-dimethyl-4oxo-tetrahydrofuran-3-ylcarbamoyl)-2-(4-hydroxyphenyl)-ethyl]-amide]	–	–
< 4.30	> 5.70	< 4.30	< 4.30	C[C@H]1OCC(=O)[C@]1(C)NC(=O)[C@H](CC1CCCCC1)NC(=O)c1ccoc1 [Example 19, (2R, 3R) Furan-3-carboxylic acid [2-cyclohexyl-1-(2,3-dimethyl-oxo-tetrahydrofuran-3-ylcaxbamoyl)-ethyl]-amide]	–	–
< 4.70	< 4.30	> 5.30	< 4.00	C[C@H]1OCC(=O)[C@]1(C)NC(=O)[C@H](Cc1ccc(O)cc1)NC(=O)c1cccc2ccccc12 [Example 27, (2R, 3R) Naphthalene-1-carboxylic acid [1-(2,3-dimethyl-4-oxo-tetrahydrofuran-3-ylcarbamoyl)-2-(4-hydroxyphenyl)-ethyl]-amide]	–	–
–	–	–	–	CC(NC(=O)C(Cc1ccccc1)NC(=O)OCc1ccccc1)C(=O)CF (stereo not drawn) [Z-Phe-Ala-FMK]	blocked replication and differentiation of the parasite	–
–	–	–	–	O=C(Cn1ccnc1[N+](=O)[O-])NCc1ccccc1 [benznidazole]	–	60%
